According to the NIST ThermoML archive (doi:10.1021/acs.jced.8b00492):
± gives the expanded uncertainty stated by the source.

How the values were obtained:
[1] = for surface tension liquid-gas: Ring tensiometer; for viscosity: 100 kPa, Liquid, Capillary tube (Ostwald / Ubbelohde) method
[2] = mn = molality of the nth substance listed, in mol/kg; settings: m2 = 0; for surface tension liquid-gas: Ring tensiometer; for viscosity / mass density / speed of sound: 100 kPa, Liquid; for viscosity: Capillary tube (Ostwald / Ubbelohde) method; for mass density: Vibrating tube method; for speed of sound: Frequency=3 MHz, Single path-length method

Row | surface tension liquid-gas ([1]; 293.15 K) | viscosity ([1]; 293.15 K) | surface tension liquid-gas ([1]; 303.15 K) | viscosity ([1]; 303.15 K) | surface tension liquid-gas ([1]; 313.15 K) | viscosity ([1]; 313.15 K) | surface tension liquid-gas ([1]; 323.15 K) | viscosity ([1]; 323.15 K) | surface tension liquid-gas ([2]; 293.15 K) | viscosity ([2]; 293.15 K) | surface tension liquid-gas ([2]; 303.15 K) | viscosity ([2]; 303.15 K) | mass density ([2]; 303.15 K) | surface tension liquid-gas ([2]; 313.15 K) | viscosity ([2]; 313.15 K) | speed of sound ([2]; 313.15 K) | mass density ([2]; 313.15 K) | surface tension liquid-gas ([2]; 323.15 K) | viscosity ([2]; 323.15 K) | speed of sound ([2]; 323.15 K) | Structure (SMILES)
1 | 72.6 ± 0.9 mN/m | 0.993 ± 0.05 mPa·s | 71.1 ± 0.9 mN/m | 0.802 ± 0.05 mPa·s | 69.2 ± 0.9 mN/m | 0.661 ± 0.05 mPa·s | 67.7 ± 0.9 mN/m | 0.555 ± 0.05 mPa·s |  |  |  |  |  |  |  |  |  |  |  |  | O [water]
2 |  |  |  |  |  |  |  |  | 72.6 ± 0.9 mN/m | 0.993 ± 0.05 mPa·s | 71.1 ± 0.9 mN/m | 0.802 ± 0.05 mPa·s | 995.9 ± 2 kg/m3 | 69.2 ± 0.9 mN/m | 0.661 ± 0.05 mPa·s | 1529.1 ± 0.7 m/s | 992.3 ± 2 kg/m3 | 67.7 ± 0.9 mN/m | 0.555 ± 0.05 mPa·s | 1541.5 ± 0.7 m/s | O [water] + C1N2CN3CN1CN(C2)C3
